{"source": "patent US12303499B2", "about": "“Aqueous based pharmaceutical formulations of 1,2-dihydropyridine compounds” (Eisai R&D Management Co., Ltd., priority 2018, dated 2025)", "assay_type_in_all_cases": "physicochemical", "key": {"[1]": {"assay": "Aqueous solubility of perampanel without solubilizer", "conditions": "water without solubilizer, aqueous buffer", "method": "Perampanel has particularly poor water solubility. Perampanel has an aqueous solubility of about 0.001 mg/mL at pH 7 at ambient room temperature. Many attempts to solubilize perampanel in water have failed.\nPerampanel is a basic drug that has poor water solubility. One source of perampanel is FYCOMPA, obtained from Eisai Co. Ltd., of Tokyo. […] Solubility studies investigated numerous different solubilizers ranging from organic cosolvents, surfactants, amino acids, complexing agents, and cyclodextrins. Further solubility studies were conducted as a function of pH with four selected solubilizers in the pH range 2 to 6. Solubility with all four solubilizers decreased as the pH was increased from 2 to 6. (See FIG. 2)"}, "[2]": {"assay": "pH-solubility of perampanel in SBE-β-CD solutions", "conditions": "aqueous with cosolvent or surfactant or cyclodextrin", "method": "Studies were conducted to determine the effect of Sulfobutyl Ether Beta Cyclodextrin (SBE-β-CD) concentration and pH on perampanel solubility. In one embodiment, the drug is solubilized at acidic pH in high concentration SBE-β-CD solutions, and then administered at neutral pH in low concentration SBE-β-CD solutions after dilution. The pH range studied for the formulation was 1.5 to 8.0 with a SBE-β-CD concentration range of 20% to 50%. For the diluted administration solution, the pH range studied was 6 to 8 with a SBE-β-CD concentration range of 3% to 9.5%.\nIn one embodiment, the drug product is administered after dilution with an IV fluid. The solubility of perampanel in SBE-β-CD was determined under diluted conditions in the neutral pH range. Perampanel concentrations after dilution can be as low as 0.08 mg/mL (8 mg in 100 mL) and as high as 0.24 mg/mL (12 mg in 50 mL)."}, "[3]": {"assay": "Metastable zone width study (precipitation temperature on cooling)", "conditions": "40% SBE-β-CD, pH 7", "method": "Meta-Stable Zone Width studies on SBE-β-CD based perampanel formulations containing varying concentrations of perampanel were performed to estimate the meta-stable zone for formulations containing 40% SBE-β-CD at pH 7. Lyophilization provides for long-term storage but requires reconstitution prior to use. When the lyophilized formulation is reconstituted, the solution is in a meta-stable supersaturated state. Meta-stable zone width analysis provides an estimate of how close a formulation is to the meta-stable state boundary.\nPerampanel solutions of varying concentration were prepared in 40% SBE-β-CD at pH 7 and placed in a warm temperature controlled mixing vessel with a LASENTECH® probe to detect precipitation. Although those skilled in the art will recognize that formulations as stated in the prior examples may be prepared by a number of methods, the following method is used to prepare formulations at various perampanel concentrations in 40% SBE-β-CD, pH 7, liquid form, for the trials below. First, a SBE-β-CD solution at pH 1.8 is prepared by adding about 25 ml of water to a beaker, then adding about 20 g of SBE-β-CD. The SBE-β-CD has a water content of 4.7%, is 100% pure, and has a theoretical weight of 20 g/0.953, or 21.0 g. The SBE-β-CD is slowly added with mixing until it has dissolved. The volume is checked to ensure that it is not greater than 40 ml. pH of the solution is adjusted to pH 1.75 with 85% phosphoric acid.\nThe weight of perampanel used to prepared the desired concentration is then calculated by dividing 100 mg by the product of (1-[moisture content of perampanel/100]) and (anhydrous purity of perampanel/100). In some examples the moisture content is 3.7% and the anhydrous purity is 99.9%. The calculated amount of perampanel is added to the pH 1.75 solution, then mixed overnight at 40° C. The solution is filtered through a 20 μm filter at 40° C., then warmed to 40° C. At that temperature pH is adjusted to 7. Volume is adjusted to 50 mL with water and mixed.\nThe solutions were cooled at defined rates and the temperature at which precipitation occurred was recorded. The potency for each sample was measured by HPLC analysis. The precipitation temperature data were analyzed as per the method described by Sangwal, K. in Crystal Growth and Design, 9, 2 (2009) 942-950.\nA plot of the precipitation temperature of perampanel from a 40% SBE-β-CD, pH 7 solution as a function of drug concentration (mg/mL) and cooling rate (deg C./hr) is provided in FIG. 8. A contour plot (see FIG. 9) and a 3-D plot (see FIG. 10) illustrating the relationship between cooling rate (deg/hr), perampanel concentration (mg/mL) and precipitation temperature were generated using the DESIGN-EXPERT® software, version 7.1.6. The DESIGN-EXPERT® model used the precipitation temperature, cooling rate, concentration and concentration terms to fit a surface to the data. The DESIGN-EXPERT® program was then able to extrapolate the precipitation temperature at zero cooling rate for different drug concentrations with 95% confidence intervals from the fit of the data.\nThis extrapolated data was used to prepare FIG. 11, which predicts the meta-stable zone boundary for perampanel in a 40% SBE-β-CD formulation at pH 7. Theoretically, if the drug concentration remains at or below the meta-stable zone boundary, then the drug should not precipitate from solution at the defined temperatures."}}}
{"smiles": "N#Cc1ccccc1-c1cc(-c2ccccn2)cn(-c2ccccc2)c1=O", "note": "[perampanel, 2-(6′-oxo-1′-phenyl-1′,6′-dihydro[2,3′-bipyridin]-5′-yl)benzonitrile]", "values": [{"measurement": "solubility", "setting": "[1]; 22° C., pH 2", "result": 30, "unit": "µg/mL"}, {"measurement": "solubility", "setting": "[1]; 22° C., pH 7", "result": "~1", "unit": "µg/mL"}, {"measurement": "solubility", "setting": "[1]; pH 7, ambient room temperature", "result": "~1", "unit": "µg/mL"}, {"measurement": "solubility", "setting": "[2]; 3% SBE-β-CD solution, 3% SBE-β-CD, pH 5.5", "result": 20, "unit": "µg/mL"}, {"measurement": "solubility", "setting": "[2]; 3% SBE-β-CD solution, 3% SBE-β-CD, pH 7", "result": 30, "unit": "µg/mL"}, {"measurement": "solubility", "setting": "[2]; 3% SBE-β-CD solution, 3% SBE-β-CD, pH 8", "result": 30, "unit": "µg/mL"}, {"measurement": "solubility", "setting": "[2]; 6% SBE-β-CD solution, 6% SBE-β-CD, pH 5.5", "result": 40, "unit": "µg/mL"}, {"measurement": "solubility", "setting": "[2]; 6% SBE-β-CD solution, 6% SBE-β-CD, pH 7", "result": 30, "unit": "µg/mL"}, {"measurement": "solubility", "setting": "[2]; 6% SBE-β-CD solution, 6% SBE-β-CD, pH 8", "result": 60, "unit": "µg/mL"}, {"measurement": "solubility", "setting": "[2]; 9.5% SBE-β-CD solution, 9.5% SBE-β-CD, pH 5", "result": 80, "unit": "µg/mL"}, {"measurement": "solubility", "setting": "[2]; 9.5% SBE-β-CD solution, 9.5% SBE-β-CD, pH 7", "result": 80, "unit": "µg/mL"}, {"measurement": "Ppt T", "setting": "[3]; Exp MC2-102-148, cooling 3.00 deg C./hour, measured 1.99 mg/mL", "result": 21.6, "unit": "deg C."}, {"measurement": "Ppt T", "setting": "[3]; Exp MC2-102-149, cooling 1.00 deg C./hour, measured 1.64 mg/mL", "result": 31.6, "unit": "deg C."}, {"measurement": "Ppt T", "setting": "[3]; Exp MC2-102-150, cooling 3.00 deg C./hour, measured 1.69 mg/mL", "result": 13.7, "unit": "deg C."}, {"measurement": "Ppt T", "setting": "[3]; Exp MC2-102-151, cooling 6.00 deg C./hour, measured 1.63 mg/mL", "result": 11.3, "unit": "deg C."}, {"measurement": "Ppt T", "setting": "[3]; Exp MC2-102-153, cooling 6.00 deg C./hour, measured 1.81 mg/mL", "result": 12.6, "unit": "deg C."}, {"measurement": "Ppt T", "setting": "[3]; Exp MC2-102-154, cooling 1.00 deg C./hour, measured 1.97 mg/mL", "result": 30.5, "unit": "deg C."}, {"measurement": "Ppt T", "setting": "[3]; Exp MC2-102-155, cooling 2.00 deg C./hour, measured 1.68 mg/mL", "result": 12.2, "unit": "deg C."}, {"measurement": "Ppt T", "setting": "[3]; Exp MC2-102-157, cooling 4.00 deg C./hour, measured 1.70 mg/mL", "result": 17.2, "unit": "deg C."}, {"measurement": "Ppt T", "setting": "[3]; Exp MC2-102-159, cooling 2.00 deg C./hour, measured 1.39 mg/mL", "result": 6.4, "unit": "deg C."}, {"measurement": "Ppt T", "setting": "[3]; Exp MC2-102-161, cooling 0.50 deg C./hour, measured 1.79 mg/mL", "result": 32.6, "unit": "deg C."}, {"measurement": "Ppt T", "setting": "[3]; Exp MC2-102-162, cooling 1.50 deg C./hour, measured 1.74 mg/mL", "result": 21.7, "unit": "deg C."}, {"measurement": "Ppt T", "setting": "[3]; Exp MC2-102-163, cooling 0.75 deg C./hour, measured 1.51 mg/mL", "result": 20.3, "unit": "deg C."}, {"measurement": "Ppt T", "setting": "[3]; Exp MC2-102-164, cooling 0.15 deg C./hour, measured 1.74 mg/mL", "result": 36.6, "unit": "deg C."}, {"measurement": "Ppt T", "setting": "[3]; Exp MC2-102-165, cooling 0.30 deg C./hour, measured 1.80 mg/mL", "result": 34.8, "unit": "deg C."}, {"measurement": "Ppt T", "setting": "[3]; Exp MC2-102-166, cooling 0.75 deg C./hour, measured 1.78 mg/mL", "result": 32.1, "unit": "deg C."}, {"measurement": "Ppt T", "setting": "[3]; Exp MC2-102-168, cooling 1.00 deg C./hour, measured 1.52 mg/mL", "result": 9.5, "unit": "deg C."}, {"measurement": "Ppt T", "setting": "[3]; Exp MC2-102-169, cooling 0.50 deg C./hour, measured 1.43 mg/mL", "result": 29.5, "unit": "deg C."}, {"measurement": "Ppt T", "setting": "[3]; Exp MC2-102-170, cooling 0.30 deg C./hour, measured 1.43 mg/mL", "result": 29.6, "unit": "deg C."}, {"measurement": "Ppt T", "setting": "[3]; Exp MC2-102-172, cooling 0.15 deg C./hour, measured 1.53 mg/mL", "result": 33.3, "unit": "deg C."}, {"measurement": "Ppt T", "setting": "[3]; Exp MC2-102-174, cooling 0.40 deg C./hour, measured 1.51 mg/mL", "result": 30.9, "unit": "deg C."}, {"measurement": "Ppt T", "setting": "[3]; Exp MC2-102-178, cooling 0.22 deg C./hour, measured 1.42 mg/mL", "result": 33.7, "unit": "deg C."}, {"measurement": "Ppt T", "setting": "[3]; Exp MC2-102-181, cooling 0.10 deg C./hour, measured 1.46 mg/mL", "result": 33.5, "unit": "deg C."}, {"measurement": "Ppt T", "setting": "[3]; Exp MC2-102-182, cooling 0.22 deg C./hour, measured 1.77 mg/mL", "result": 35.5, "unit": "deg C."}, {"measurement": "Ppt T", "setting": "[3]; Exp MC2-102-185, cooling 0.40 deg C./hour, measured 1.30 mg/mL", "result": 17.4, "unit": "deg C."}, {"measurement": "Ppt T", "setting": "[3]; Exp MC2-102-187, cooling 0.30 deg C./hour, measured 1.10 mg/mL", "result": 10.2, "unit": "deg C."}, {"measurement": "Ppt T", "setting": "[3]; Exp MC2-102-192, cooling 0.20 deg C./hour, measured 1.21 mg/mL", "result": 22.9, "unit": "deg C."}, {"measurement": "Ppt T", "setting": "[3]; Exp MC2-102-193, cooling 0.10 deg C./hour, measured 1.26 mg/mL", "result": 24.1, "unit": "deg C."}, {"measurement": "Ppt T", "setting": "[3]; Exp MC2-102-197, cooling 0.40 deg C./hour, measured 1.06 mg/mL", "result": 2.6, "unit": "deg C."}, {"measurement": "Ppt T", "setting": "[3]; Exp MC2-1108-001, cooling 0.40 deg C./hour, measured 0.97 mg/mL", "result": 12.8, "unit": "deg C."}]}
